Reference: patent US12509444B2, “Compounds and methods for CD73 modulation and indications therefor” (Plexxikon Inc., priority 2019, dated 2025)

biological target: T1, Human CD73 (amino acid residues 27-549) (Homo sapiens, UniProt P21589); experiment: CD73 enzymatic assay (luciferase-based indirect assay, CellTiter-Glo); assay type: biochemical; conditions: 0.4 nM CD73, 150 μM AMP, 1 hour at room temperature
T1 construct: Human CD73 (amino acid residues 27-549); His tag (N); made in house; host or cells: E. coli
T1 sequence (P21589 27-549): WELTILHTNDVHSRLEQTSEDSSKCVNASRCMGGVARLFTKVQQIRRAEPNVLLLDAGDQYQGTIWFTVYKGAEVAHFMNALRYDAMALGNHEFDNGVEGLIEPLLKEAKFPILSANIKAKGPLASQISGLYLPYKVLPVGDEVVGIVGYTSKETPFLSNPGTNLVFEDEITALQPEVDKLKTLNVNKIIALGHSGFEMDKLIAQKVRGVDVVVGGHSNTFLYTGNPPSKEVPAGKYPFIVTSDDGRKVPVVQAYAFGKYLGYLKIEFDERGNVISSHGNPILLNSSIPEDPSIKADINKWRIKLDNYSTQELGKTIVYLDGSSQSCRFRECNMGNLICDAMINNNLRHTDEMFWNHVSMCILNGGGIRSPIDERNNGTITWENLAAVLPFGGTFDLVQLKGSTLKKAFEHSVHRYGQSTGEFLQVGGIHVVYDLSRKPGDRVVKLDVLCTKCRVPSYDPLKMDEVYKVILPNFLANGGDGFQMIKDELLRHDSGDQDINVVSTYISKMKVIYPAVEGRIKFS
Experimental: CD73 enzymatic activity was measured in a luciferase-based indirect assay using CellTiter-Glo® system from Promega. The luciferase reaction in the presence of ATP is inhibited by AMP, a primary substrate of CD73. Addition of CD73 enzyme to the reaction converts AMP to adenosine, and release the inhibition, producing a luminescent signal. Inhibition of CD73 leads to the decrease of this luminescent signal.
Human CD73 (amino acid residues 27-549) with N-Terminal His tag was purified in E. coli. All the assay components were prepared in 50 mM HEPEs buffer (pH 7.4) with 0.01% Tween® 20. The CD73 enzymatic assay was performed using 0.4 nM CD73 and 150 μM AMP. 9.5 μL of CD73 protein and 9.5 μL of AMP were added to the wells of a 384 well plate containing 1 μL of various concentrations of test compound or DMSO vehicle and incubated for 1 hour at room temperature. 16 wells containing CD73, AMP and 5% DMSO served as high control. 16 wells containing AMP and 5% DMSO served as low control. Enzymatic reaction was stopped and AMP level was measured indirectly by adding 5 μL of CellTiter-Glo® 2.0 reagent and 5 μL of ATP with a final concentration of 1 μM. Following incubation of the plate at room temperature for 30 minutes, luminescent signal was read on a Tecan plate reader. The percentage inhibition at individual concentrations relative to high and low controls was calculated. The data were analyzed by using nonlinear regression to generate IC50 values.

SMILES	IC50
O=C(Nc1cccc(OC(F)F)c1)N[C@@H]1CCN(c2cn[nH]c(=O)c2Cl)C1 [P-0044, (R)-1-(1-(5-chloro-6-oxo-1,6-dihydropyridazin-4-yl)pyrrolidin-3-yl)-3-(3-(difluoromethoxy)phenyl)urea]	0.001 to 10 µM
CN(C)c1ccc(NC(=O)N[C@@H]2CCN(c3cn[nH]c(=O)c3Cl)C2)cc1 [P-0045, (R)-1-(1-(5-chloro-6-oxo-1,6-dihydropyridazin-4-yl)pyrrolidin-3-yl)-3-(4-(dimethylamino)phenyl)urea]	10 to 100 µM
O=C(N[C@@H]1CCN(c2cn[nH]c(=O)c2Cl)C1)OCc1ccccc1 [P-0048, benzyl (R)-(1-(5-chloro-6-oxo-1,6-dihydropyridazin-4-yl)pyrrolidin-3-yl)carbamate]	10 to 100 µM
COc1ccc(OC(=O)N[C@@H]2CCN(c3cn[nH]c(=O)c3Cl)C2)cc1 [P-0049, 4-methoxyphenyl (R)-(1-(5-chloro-6-oxo-1,6-dihydropyridazin-4-yl)pyrrolidin-3-yl)carbamate]	0.001 to 10 µM
O=C(NC1CC1)N[C@@H]1CCN(c2cn[nH]c(=O)c2Cl)C1 [P-0053, (R)-1-(1-(5-chloro-6-oxo-1,6-dihydropyridazin-4-yl)pyrrolidin-3-yl)-3-cyclopropylurea]	0.001 to 10 µM
CN(C(=O)OC(C)(C)C)C1CCN(c2cn[nH]c(=O)c2Cl)C1 (stereo not drawn) [P-0066, tert-butyl (1-(5-chloro-6-oxo-1,6-dihydropyridazin-4-yl)pyrrolidin-3-yl)(methyl)carbamate]	10 to 100 µM
CN(C(=O)NC1CCCC1)C1CCN(c2cn[nH]c(=O)c2Cl)C1 (stereo not drawn) [P-0067, 1-(1-(5-chloro-6-oxo-1,6-dihydropyridazin-4-yl)pyrrolidin-3-yl)-3-cyclopentyl-1-methylurea]	10 to 100 µM
CN(C(=O)NC1CCCCC1)C1CCN(c2cn[nH]c(=O)c2Cl)C1 (stereo not drawn) [P-0069, 1-(1-(5-chloro-6-oxo-1,6-dihydropyridazin-4-yl)pyrrolidin-3-yl)-3-cyclohexyl-1-methylurea]	0.001 to 10 µM
CC(C)(C)OC(=O)NC1(C(=O)O)CCN(c2cn[nH]c(=O)c2Cl)C1 (stereo not drawn) [P-0070, 3-((tert-butoxycarbonyl)amino)-1-(5-chloro-6-oxo-1,6-dihydropyridazin-4-yl)pyrrolidine-3-carboxylic acid]	100 to 1000 µM
CC(=O)N1CCC(NC(=O)N[C@@H]2CCN(c3cn[nH]c(=O)c3Cl)C2)CC1 [P-0071, (R)-1-(1-acetylpiperidin-4-yl)-3-(1-(5-chloro-6-oxo-1,6-dihydropyridazin-4-yl)pyrrolidin-3-yl)urea]	0.001 to 10 µM
NC(=O)C1(NC(=O)OC2CCCCC2)CCN(c2cn[nH]c(=O)c2Cl)C1 (stereo not drawn) [P-0075, cyclohexyl (3-carbamoyl-1-(5-chloro-6-oxo-1,6-dihydropyridazin-4-yl)pyrrolidin-3-yl)carbamate]	10 to 100 µM
CN(C(=O)NC1CCN(c2cn[nH]c(=O)c2Cl)C1)C1CCCC1 (stereo not drawn) [P-0079, 3-(1-(5-chloro-6-oxo-1,6-dihydropyridazin-4-yl)pyrrolidin-3-yl)-1-cyclopentyl-1-methylurea]	0.001 to 10 µM
O=C(NC1CC1c1ccccc1)N[C@@H]1CCN(c2cn[nH]c(=O)c2Cl)C1 (stereo partly drawn) [P-0084, 1-((R)-1-(5-chloro-6-oxo-1,6-dihydropyridazin-4-yl)pyrrolidin-3-yl)-3-(2-phenylcyclopropyl)urea]	0.001 to 10 µM
COC(=O)C12CCC(NC(=O)O[C@@H]3CCN(c4cn[nH]c(=O)c4Cl)C3)(CC1)CC2 [P-0120, methyl (R)-4-((((1-(5-chloro-6-oxo-1,6-dihydropyridazin-4-yl)pyrrolidin-3-yl)oxy)carbonyl)amino)bicyclo [2.2.2]octane-1-carboxylate]	0.001 to 10 µM

Now from value to compound:

IC50	SMILES
0.001 to 10 µM	O=C(Nc1ccc(C(F)(F)F)cc1)N[C@@H]1CCN(c2cn[nH]c(=O)c2Cl)C1 [P-0043, (R)-1-(1-(5-chloro-6-oxo-1,6-dihydropyridazin-4-yl)pyrrolidin-3-yl)-3-(4-(trifluoromethyl)phenyl)urea]
0.001 to 10 µM	CC(C)COC(=O)N[C@@H]1CCN(c2cn[nH]c(=O)c2Cl)C1 [P-0050, isobutyl (R)-(1-(5-chloro-6-oxo-1,6-dihydropyridazin-4-yl)pyrrolidin-3-yl)carbamate]
0.001 to 10 µM	O=C(N[C@@H]1CCN(c2cn[nH]c(=O)c2Cl)C1)OC1CCOC1 (stereo partly drawn) [P-0055, tetrahydrofuran-3-yl ((R)-1-(5-chloro-6-oxo-1,6-dihydropyridazin-4-yl)pyrrolidin-3-yl)carbamate]
0.001 to 10 µM	C[C@H]1CN(c2cn[nH]c(=O)c2Cl)C[C@@H]1NC(=O)OC(C)(C)C [P-0060, tert-butyl ((3R,4S)-1-(5-chloro-6-oxo-1,6-dihydropyridazin-4-yl)-4-methylpyrrolidin-3-yl)carbamate]
0.001 to 10 µM	C[C@H]1CN(c2cn[nH]c(=O)c2Cl)C[C@@H]1NC(=O)NC1CCCC1 [P-0061, 1-((3R,4S)-1-(5-chloro-6-oxo-1,6-dihydropyridazin-4-yl)-4-methylpyrrolidin-3-yl)-3-cyclopentylurea]
0.001 to 10 µM	CCS(=O)(=O)N1CCC(NC(=O)N[C@@H]2CCN(c3cn[nH]c(=O)c3Cl)C2)CC1 [P-0072, (R)-1-(1-(5-chloro-6-oxo-1,6-dihydropyridazin-4-yl)pyrrolidin-3-yl)-3-(1-(ethylsulfonyl)piperidin-4-yl)urea]
10 to 100 µM	N#CC1(NC(=O)NC2CCCC2)CCN(c2cn[nH]c(=O)c2Cl)C1 (stereo not drawn) [P-0073, 1-(1-(5-chloro-6-oxo-1,6-dihydropyridazin-4-yl)-3-cyanopyrrolidin-3-yl)-3-cyclopentylurea]
10 to 100 µM	CN(C(=O)NC1CCN(c2cn[nH]c(=O)c2Cl)C1)C1CCCCC1 (stereo not drawn) [P-0078, 3-(1-(5-chloro-6-oxo-1,6-dihydropyridazin-4-yl)pyrrolidin-3-yl)-1-cyclohexyl-1-methylurea]
10 to 100 µM	Cc1n[nH]c(=O)c(Cl)c1N1CC[C@@H](NC(=O)NC2CCCCC2)C1 [P-0080, (R)-1-(1-(5-chloro-3-methyl-6-oxo-1,6-dihydropyridazin-4-yl)pyrrolidin-3-yl)-3-cyclohexylurea]
0.001 to 10 µM	Cc1c(N2CC[C@@H](NC(=O)OC3CCCCC3)C2)cn[nH]c1=O [P-0081, cyclohexyl (R)-(1-(5-methyl-6-oxo-1,6-dihydropyridazin-4-yl)pyrrolidin-3-yl)carbamate]
10 to 100 µM	Cc1n[nH]c(=O)c(Cl)c1N1CC[C@@H](NC(=O)OC2CCCC2)C1 [P-0082, cyclopentyl (R)-(1-(5-chloro-3-methyl-6-oxo-1,6-dihydropyridazin-4-yl)pyrrolidin-3-yl)carbamate]
10 to 100 µM	O=C(NCC1CC1)N[C@@H]1CCN(c2cn[nH]c(=O)c2Cl)C1 [P-0083, (R)-1-(1-(5-chloro-6-oxo-1,6-dihydropyridazin-4-yl)pyrrolidin-3-yl)-3-(cyclopropylmethyl)urea]
0.001 to 10 µM	O=C(NC1C2CC3CC(C2)CC1C3)N[C@@H]1CCN(c2cn[nH]c(=O)c2Cl)C1 (stereo partly drawn) [P-0087, (R)-1-(adamantan-2-yl)-3-(1-(5-chloro-6-oxo-1,6-dihydropyridazin-4-yl)pyrrolidin-3-yl)urea]
